Data set [1] can be described thus: Immunosuppressive activity in concanavalin A-activated T cell assessed as inhibition of lymphoproliferation after 3 days by beta-scintillation counting. The format is functional, cell-based.
The subject of data set [2] is Splenocyte. As to the kind of experiment: Immunosuppressive activity in splenocytes assessed as inhibition of mixed lymphocyte reaction. The format is functional, cell-based.
In data set [3] the test system is Splenocyte. As to the kind of experiment: Immunosuppressive activity in mouse splenocytes assessed as inhibition of allogenic mixed lymphocyte reaction. The format is functional, cell-based.
The test system of data set [4] is Splenocyte. As to the kind of experiment: Ratio of IC50 of drug to IC50 of cyclosporin A for immunosuppressive activity in mouse splenocytes assessed as inhibition of allogenic mixed lymphocyte reaction. It counts as functional.
Data set [5] deals with Mus musculus. As to the kind of experiment: Immunosuppressive activity in BALB/c mouse skin allografted C57BL/6 mouse assessed as survival of allograft skin at 1 mg/kg, ip administered daily. The format is functional. Conditions: route intraperitoneal.
The nature of data set [6]: Immunosuppressive activity in LPS-activated B lymphocyte assessed as inhibition of lymphoproliferation after 3 days by beta-scintillation counting. It counts as functional.
Data set [7] has as its system RAW264.7. As to the kind of experiment: Cytotoxicity against mouse RAW264.7 cells at 0.01 to 10 uM. The format is cell-based. Particulars: raw264.7, 10 µM.
Data set [8] has as its system RAW264.7. Kind of data set: Immunosuppressive activity in mouse RAW264.7 cells assessed as inhibition of LPS-induced NO production at 0.01 to 10 uM. The format is functional, cell-based.
In data set [9] the test system is RAW264.7. Kind of data set: Immunosuppressive activity in mouse RAW264.7 cells assessed as inhibition of LPS-induced iNOS expression at 0.01 to 10 uM. It counts as functional, cell-based.
For data set [10], the system named is RAW264.7. As to the kind of experiment: Immunosuppressive activity in mouse RAW264.7 cells assessed as inhibition of LPS-induced TNFalpha expression level in at 0.01 to 10 uM. It counts as functional, cell-based.
Data set [11] deals with RAW264.7. Kind of data set: Immunosuppressive activity in mouse RAW264.7 cells assessed as inhibition of LPS-induced NO production. It counts as functional, cell-based.
The subject of data set [12] is RAW264.7. Kind of data set: Immunosuppressive activity in mouse RAW264.7 cells assessed as inhibition of LPS-induced iNOS expression. The format is functional, cell-based.
Data set [13] in a line: Cytotoxicity against rat H42E cells assessed as intracellular ATP level. The format is cell-based. Conditions: read-out: TC50 (the source's name).
Data set [14] in a line: Cytotoxicity against rat H42E cells assessed as alteration in mitochondrial function by MTT assay. The format is cell-based. Particulars: read-out: TC50 (the source's name). A general note: Tetrazolium dyes change colour on reduction, which living cells bring about.
The nature of data set [15]: Antiproliferative activity against rat H42E cells assessed as cell number. It counts as cell-based.
The nature of data set [16]: Cytotoxicity against rat H42E cells assessed as release of alpha-glutathione S transferase. The format is cell-based. Conditions: read-out: TC50 (the source's name).
The mark [17] stands for this setting: Mus musculus, Splenocyte, read-out: IC50.

Calls of active or inactive are those of the source. The rule behind the calls is not given here.

On to `COc1cc2c(c(OC)c1OC)-c1ccc(SC)c(=O)cc1[C@@H](NC(=O)c1cccc(CO[N+](=O)[O-])c1[N+](=O)[O-])CC2`, for which the IC50 (commonly the concentration needed to halve the response being measured) in data set [1] came to 7 nM; in data set [2] (setting [17]), 9 nM.
Take `COc1cc2c(c(OC)c1OC)-c1ccc(SC)c(=O)cc1[C@@H](NC(=O)c1ccc(C#N)c(CO[N+](=O)[O-])c1)CC2`: the IC50 in data set [2] (setting [17]) was 49 nM.
As for `COc1cc2c(c(OC)c1OC)-c1ccc(SC)c(=O)cc1[C@@H](NC(=O)c1cc(CO[N+](=O)[O-])ccc1[N+](=O)[O-])CC2`, in data set [2] (setting [17]), the IC50 came to 73 nM.
In the case of `COc1cc2c(c(OC)c1OC)-c1ccc(N(C)C)c(=O)cc1[C@@H](NC(=O)CCCO[N+](=O)[O-])CC2`, in data set [3], the IC50 is 6600 nM.
Turning to `COc1cc2c(c(OC)c1OC)-c1ccc(OC)c(=O)cc1[C@@H](NC(=O)CCCCl)CC2`, the IC50 in data set [3] worked out at 4700 nM.
Regarding `COc1cc2c(c(OC)c1OC)-c1ccc(SC)c(=O)cc1[C@@H](NC(=O)c1cccc(CO[N+](=O)[O-])c1-c1ccccc1)CC2`, the IC50 in data set [2] (setting [17]) turned out to be 434 nM.
On to `COc1cc2c(c(OC)c1OC)-c1ccc(OC)c(=O)cc1[C@@H](N(C)C(=O)c1ccc(CO[N+](=O)[O-])cc1)CC2`, for which the IC50 in data set [3] is more than 100000 nM.
In the case of `COc1cc2c(c(OC)c1OC)-c1ccc(OC)c(=O)cc1[C@@H](NC(=O)c1ccc(CO[N+](=O)[O-])cc1)CC2`, in data set [3], the IC50 amounted to 70 nM. Besides, in data set [4], the “Ratio IC50” value is on record as 5.
Turning to `COc1cc2c(c(OC)c1OC)-c1ccc(OC)c(=O)cc1[C@@H](NC(=O)CCCO[N+](=O)[O-])CC2`, the IC50 in data set [3] was determined as 10 nM. In addition, the “Ratio IC50” value in data set [4] was determined as 470.
As for `COc1cc2c(c(OC)c1OC)-c1ccc(SC)c(=O)cc1[C@@H](NC(=O)c1cc(CO[N+](=O)[O-])ccc1F)CC2`, the 50% inhibitory concentration (IC50) in [2] (setting [17]) was 4 nM.
`COc1cc2c(c(OC)c1OC)-c1ccc(OC)c(=O)cc1[C@@H](N(C)C(=O)c1cccc(CO[N+](=O)[O-])c1)CC2`: in [3], the IC50 was more than 100000 nM.
As to `COc1ccc(CO[N+](=O)[O-])cc1C(=O)N[C@H]1CCc2cc(OC)c(OC)c(OC)c2-c2ccc(SC)c(=O)cc21`, in [2] (setting [17]), the 50% inhibitory concentration (IC50) turned out to be 78 nM.
With `COc1cc2c(c(OC)c1OC)-c1ccc(SC)c(=O)cc1[C@@H](NC(=O)c1ccc(F)c(CO[N+](=O)[O-])c1)CC2`, the IC50 in data set [2] (setting [17]) was determined as 31 nM.
In the case of `COc1ccc(C(=O)N[C@H]2CCc3cc(OC)c(OC)c(OC)c3-c3ccc(SC)c(=O)cc32)cc1CO[N+](=O)[O-]`, in data set [2] (setting [17]), the IC50 stood at 15 nM.
For `COc1cc2c(c(OC)c1OC)-c1ccc(SC)c(=O)cc1[C@@H](NC(=O)c1cccc(CO[N+](=O)[O-])c1C#N)CC2`, the IC50 in data set [2] (setting [17]) worked out at 58 nM.
For the molecule `COc1cc2c(c(OC)c1OC)-c1ccc(SC)c(=O)cc1[C@@H](NC(=O)c1cccc(CO[N+](=O)[O-])c1Br)CC2`, the IC50 in data set [2] (setting [17]) came out at 61 nM.
In the case of `COc1cc2c(c(OC)c1OC)-c1ccc(N(C)C)c(=O)cc1[C@@H](NC(=O)c1ccc(CO[N+](=O)[O-])cc1)CC2`, the IC50 in data set [3] was found to be 2500 nM.
Consider `COc1cc2c(c(OC)c1OC)-c1ccc(OC)c(=O)cc1[C@@H](NC(=O)c1cccc(CCl)c1)CC2`, for which the IC50 in data set [3] came out at 6300 nM.
Regarding `COc1cc2c(c(OC)c1OC)-c1ccc(SC)c(=O)cc1[C@@H](NC(=O)c1ccc(Br)c(CO[N+](=O)[O-])c1)CC2`, the IC50 in data set [2] (setting [17]) is 89 nM.
Consider `C/C=C/C[C@@H](C)[C@@H](O)[C@H]1C(=O)N[C@@H](CC)C(=O)N(C)CC(=O)N(C)[C@@H](CC(C)C)C(=O)N[C@@H](C(C)C)C(=O)N(C)[C@@H](CC(C)C)C(=O)N[C@@H](C)C(=O)N[C@H](C)C(=O)N(C)[C@@H](CC(C)C)C(=O)N(C)[C@@H](CC(C)C)C(=O)N(C)[C@@H](C(C)C)C(=O)N1C` [CYCLOSPORINE], for which the Survival in [5] amounted to 11.8 days.
Take `COc1cc2c(c(OC)c1OC)-c1ccc(SC)c(=O)cc1[C@@H](NC(=O)c1ccc(I)c(CO[N+](=O)[O-])c1)CC2`: in [2] (setting [17]), the concentration for half-maximal inhibition (IC50) amounted to 68 nM.
Turning to `COc1cc2c(c(OC)c1OC)-c1ccc(SC)c(=O)cc1[C@@H](NC(=O)c1cccc(CO[N+](=O)[O-])c1)CC2`, the IC50 in data set [3] came to 70 nM; in [6] it was 1 nM; in data set [1] it was 1 nM; in [2] (setting [17]), 68 nM. The Activity result was “Non-toxic” in [7], “Dose-dependent effect” in data set [11] and “Dose-dependent effect” in data set [12]. For the same molecule, the inhibition entry in [8] and in data set [9] was “inactive” each time. For the same molecule, in data set [10], the inhibition entry is “Active”.
In the case of `COc1cc2c(c(OC)c1OC)-c1ccc(SC)c(=O)cc1[C@@H](NC(=O)c1ccc(CO[N+](=O)[O-])cc1)CC2`, the values for the IC50 in [3], in data set [6] and in data set [1] were 20 nM, 349 nM and 392 nM, respectively.
`COc1cc2c(c(OC)c1OC)-c1ccc(SC)c(=O)cc1[C@@H](NC(=O)CCCO[N+](=O)[O-])CC2`: the IC50 in data set [3] worked out at 210 nM; in data set [6] it was 1 nM; in [1] it was 582 nM. Further, the Activity entry in [7] was “Non-toxic”.
For `COc1cc2c(c(OC)c1OC)-c1ccc(N(C)C)c(=O)cc1[C@@H](NC(=O)c1cccc(CO[N+](=O)[O-])c1)CC2`, the IC50 in [3] came out at 10000 nM.
On to `COc1cc2c(c(OC)c1OC)-c1ccc(SC)c(=O)cc1[C@@H](NC(=O)c1cccc(CO[N+](=O)[O-])c1OC)CC2`, for which the IC50 in data set [2] (setting [17]) worked out at 700 nM.
With `COc1cc2c(c(OC)c1OC)-c1ccc(SC)c(=O)cc1[C@@H](NC(=O)c1ccc([N+](=O)[O-])c(CO[N+](=O)[O-])c1)CC2`, in [2] (setting [17]), the IC50 worked out at 55 nM.
For `COc1cc2c(c(OC)c1OC)-c1ccc(SC)c(=O)cc1[C@@H](NC(=O)c1ccc(Cl)c(CO[N+](=O)[O-])c1)CC2`, the CC50 in [13], in data set [14], in data set [15] and in data set [16] was 300000 nM each time. The half-inhibitory concentration (IC50) in data set [2] (setting [17]) is 50 nM.
For `COc1cc2c(c(OC)c1OC)-c1ccc(SC)c(=O)cc1[C@@H](NC(=O)c1cc(CO[N+](=O)[O-])ccc1C#N)CC2`, the IC50 in data set [2] (setting [17]) came out at 290 nM.
As to `COc1cc2c(c(OC)c1OC)-c1ccc(SC)c(=O)cc1[C@@H](NC(=O)c1cccc(CO[N+](=O)[O-])c1Cl)CC2`, the half-maximal inhibitory concentration (IC50) in data set [1] is 3 nM; in data set [2] (setting [17]) it was 8 nM. For the same molecule, the Survival in [5] was determined as 12.3 days.
Take `COc1cc2c(c(OC)c1OC)-c1ccc(OC)c(=O)cc1[C@@H](NC(=O)c1cccc(CO[N+](=O)[O-])c1)CC2`: the IC50 in [3] stood at 250 nM. For the same molecule, the “Ratio IC50” value in [4] was 25.
On to `COc1cc2c(c(OC)c1OC)-c1ccc(SC)c(=O)cc1[C@@H](NC(=O)c1cccc(CO[N+](=O)[O-])c1F)CC2`, for which the IC50 in data set [2] (setting [17]) was 65 nM.
Turning to `COc1cc2c(c(OC)c1OC)-c1ccc(SC)c(=O)cc1[C@@H](NC(=O)c1ccc(-c3ccccc3)c(CO[N+](=O)[O-])c1)CC2`, the half-inhibitory concentration (IC50) in data set [2] (setting [17]) was 54 nM.
As for `COc1cc2c(c(OC)c1OC)-c1ccc(SC)c(=O)cc1[C@@H](NC(=O)c1cc(CO[N+](=O)[O-])ccc1-c1ccccc1)CC2`, in [2] (splenocyte), the IC50 entry was “Not Active”.
Regarding `COc1cc2c(c(OC)c1OC)-c1ccc(SC)c(=O)cc1[C@@H](NC(=O)c1cc(CO[N+](=O)[O-])ccc1Cl)CC2`, the IC50 in data set [1] worked out at 392 nM; in [2] (setting [17]) it was 4 nM.
Consider `COc1cc2c(c(OC)c1OC)-c1ccc(OC)c(=O)cc1[C@@H](NC(=O)c1ccc(CCl)cc1)CC2`, for which the IC50 in [3] turned out to be 320 nM. Besides, the “Ratio IC50” value in data set [4] is recorded as 7.
Consider `COc1cc2c(c(OC)c1OC)-c1ccc(OC)c(=O)cc1[C@@H](N(C)C(=O)CCCO[N+](=O)[O-])CC2`, for which the IC50 in data set [3] came to 3500 nM.
Consider `COc1cc2c(c(OC)c1OC)-c1ccc(SC)c(=O)cc1[C@@H](NC(=O)c1cc(CO[N+](=O)[O-])ccc1I)CC2`, for which, in data set [2] (setting [17]), the IC50 was 103 nM.
For `COc1cc2c(c(OC)c1OC)-c1ccc(SC)c(=O)cc1[C@@H](NC(=O)c1cc(CO[N+](=O)[O-])ccc1Br)CC2`, in data set [2] (setting [17]), the 50% inhibitory concentration (IC50) amounted to 89 nM.
For the molecule `COc1cc2c(c(OC)c1OC)-c1ccc(SC)c(=O)cc1[C@@H](NC(=O)c1cccc(CO[N+](=O)[O-])c1I)CC2`, the IC50 in data set [2] (setting [17]) was 85 nM.
For the molecule `COc1cc2c(c(OC)c1OC)-c1ccc(OC)c(=O)cc1[C@@H](NC(C)=O)CC2` [COLCHICINE], the IC50 in [3] was determined as 2300 nM; in [6], 7.3 nM; in data set [1], 548 nM.
